Drawing on patent publication US10370366B2 (Flatley Discovery Lab, LLC, priority 2013, dated 2019), this text covers Emax and EC50 for 21 compounds.

pEC50: −log10 of the molar value.

The assay has as its target T1, human F508del CFTR (Homo sapiens, UniProt P13569, DEL508-508).
T1 construct: expressed in transfected cells; host or cells: Fisher Rat Thyroid (FRT) cells
The assay is described as follows: CFTR-YFP High Throughput Assay. The following applies: FRT cells expressing human F508del CFTR and YFP; for Emax: EMax normalized to the positive control, read-out: % Efficacy. The assay is classed as cell-based. An outline of the steps: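 FRT cells stably co-expressing human F508del CFTR and halide-sensitive YFP-H148Q/I152L; for correction, compound (2 nM-40 μM) incubated 24-26 h at 37° C, washed, then stimulated 60-120 min at RT with 20 μM forskolin plus 30 μM potentiator P3. Iodide-induced YFP quench (Ex 500/Em 540 nm) recorded; quench rates least-squares fitted.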

T1 sequence (P13569 with tags, fused parts or gaps DEL508-508): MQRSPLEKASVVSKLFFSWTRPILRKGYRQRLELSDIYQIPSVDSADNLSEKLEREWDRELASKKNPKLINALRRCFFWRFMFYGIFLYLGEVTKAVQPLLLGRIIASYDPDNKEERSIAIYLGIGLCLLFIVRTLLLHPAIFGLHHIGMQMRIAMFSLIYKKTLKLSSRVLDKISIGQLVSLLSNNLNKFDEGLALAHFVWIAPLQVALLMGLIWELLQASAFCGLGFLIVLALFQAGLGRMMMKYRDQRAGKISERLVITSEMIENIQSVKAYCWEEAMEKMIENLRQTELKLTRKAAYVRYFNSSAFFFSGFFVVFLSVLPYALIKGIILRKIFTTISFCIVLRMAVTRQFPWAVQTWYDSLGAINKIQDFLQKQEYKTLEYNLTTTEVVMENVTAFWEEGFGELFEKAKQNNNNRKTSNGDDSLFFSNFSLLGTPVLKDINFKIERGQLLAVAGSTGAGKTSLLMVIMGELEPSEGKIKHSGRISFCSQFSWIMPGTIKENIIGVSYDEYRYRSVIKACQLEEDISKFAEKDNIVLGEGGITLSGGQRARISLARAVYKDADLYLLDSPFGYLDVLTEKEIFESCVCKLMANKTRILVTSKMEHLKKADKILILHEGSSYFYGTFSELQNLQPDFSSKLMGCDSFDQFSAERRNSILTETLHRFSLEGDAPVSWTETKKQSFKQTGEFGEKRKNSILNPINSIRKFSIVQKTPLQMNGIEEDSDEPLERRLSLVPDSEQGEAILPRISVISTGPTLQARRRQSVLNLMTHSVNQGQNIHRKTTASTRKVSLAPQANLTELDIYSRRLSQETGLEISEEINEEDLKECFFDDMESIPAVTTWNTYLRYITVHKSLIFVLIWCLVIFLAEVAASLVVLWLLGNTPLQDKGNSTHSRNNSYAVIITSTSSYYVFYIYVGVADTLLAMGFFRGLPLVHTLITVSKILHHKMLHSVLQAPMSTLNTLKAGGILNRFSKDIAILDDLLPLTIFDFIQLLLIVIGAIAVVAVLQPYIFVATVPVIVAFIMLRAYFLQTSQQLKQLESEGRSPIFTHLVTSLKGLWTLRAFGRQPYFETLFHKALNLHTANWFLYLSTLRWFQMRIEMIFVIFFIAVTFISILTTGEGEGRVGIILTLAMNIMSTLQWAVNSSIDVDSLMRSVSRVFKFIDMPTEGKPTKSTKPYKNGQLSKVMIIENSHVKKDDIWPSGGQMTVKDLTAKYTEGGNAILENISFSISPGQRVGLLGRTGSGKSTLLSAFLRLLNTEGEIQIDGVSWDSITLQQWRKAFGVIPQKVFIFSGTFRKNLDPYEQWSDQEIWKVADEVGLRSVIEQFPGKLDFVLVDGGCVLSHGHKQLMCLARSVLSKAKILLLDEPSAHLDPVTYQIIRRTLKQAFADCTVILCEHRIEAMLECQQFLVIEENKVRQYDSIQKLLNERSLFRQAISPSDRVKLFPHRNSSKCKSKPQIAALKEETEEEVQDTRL

On to `CCc1ccc(N(CC)C(=O)Cn2nc(Cc3cccnc3)c3ccccc3c2=O)cc1` [Example 25, N-ethyl-N-(4-ethylphenyl)-2-(1-oxo-4-(pyridin-3-ylmethyl)phthalazin-2(1H)-yl)acetamide], for which the Emax fell in the range of 30 to 80% and the negative-log EC50 (pEC50) – broadly, the negative decadic logarithm of the EC50, by convention in mol/L – is 4.70 to 5.00. For `CCN(C(=O)Cn1ncc2c(c1=O)c1ccccc1n2CCC#N)c1ccc2c(c1)OC(F)(F)O2` [Example 138, 2-(5-(2-cyanoethyl)-1-oxo-1H-pyridazino[4,5-b]indol-2(5H)-yl)-N-(2,2-difluorobenzo[d][1,3]dioxol-5-yl)-N-ethylacetamide], the Emax lay within 10 to 30% and the negative-log EC50 (pEC50) was less than 4.70. Take `COc1ccc2c(-c3ccc(C(N)=O)cc3)nn(CC(=O)N(C)c3ccc4c(c3)OC(F)(F)O4)c(=O)c2c1` [Example 83, 4-(3-(2-((2,2-difluorobenzo[d][1, 3]dioxol-5-yl)(methyl)amino)-2-oxoethyl)-6-methoxy-4-oxo-3,4-dihydrophthalazin-1-yl)benzamide]: the Emax lay within 30 to 80%. Still for that read-out and setting: to `CCN(C(=O)Cn1ncc2c(c1=O)c1ccccc1n2Cc1ccccn1)c1ccc2c(c1)OC(F)(F)O2` [Example 131, N-(2,2-difluorobenzo[d][1, 3]dioxol-5-yl)-N-ethyl-2-(1-oxo-5-(pyridin-2-ylmethyl)-1H-pyridazino[4,5-b]indol-2(5H)-yl)acetamide] belongs 30 to 80%. For the compound `CCOc1cc2c(=O)n(CC(=O)N(C)c3ccc4c(c3)OC(F)(F)O4)nc(-c3cccc(C#N)c3)c2cc1Cl` [Example 122, 2-(6-chloro-4-(3-cyanophenyl)-7-ethoxy-1-oxophthalazin-2(1H)-yl)-N-(2,2-difluorobenzo[d][1,3]dioxol-5-yl)-N-methylacetamide], the Emax was more than 80% and the pEC50 was more than 5.00. The like results for `CCN(C(=O)c1nn(-c2ccc(C(F)(F)F)cc2)c(=O)c2c1c1ccccc1n2C)c1ccccc1` [Example 194, N-ethyl-5-methyl-4-oxo-N-phenyl-3-(4-(trifluoromethyl)phenyl)-4,5-dihydro-3H-pyridazino[4,5-b]indole-1-carboxamide] were, in that order, 30 to 80% and less than 4.70. Regarding `Cc1ccc(-n2nc(C(=O)N3CCCc4ccccc43)c3c4ccccc4n(C)c3c2=O)cc1` [Example 159, 5-methyl-1-(1,2,3,4-tetrahydroquinoline-1-carbonyl)-3-(p-tolyl)-3H-pyridazino[4,5-b]indol-4(5H)-one], the Emax lay in the range of 30 to 80%. Same read-out and setting: as for `CCN(C(=O)c1nn(-c2ccccc2)c(=O)c2c1c1ccccc1n2C)c1cccc(Cl)c1` [Example 181, N-(3-chlorophenyl)-N-ethyl-5-methyl-4-oxo-3-phenyl-4,5-dihydro-3H-pyridazino[4,5-b]indole-1-carboxamide], the figure is 30 to 80%; as for `CCN(C(=O)Cn1nc(Cc2cccnc2)c2ccc(Cl)cc2c1=O)c1ccc2c(c1)OC(F)(F)O2` [Example 54, 2-(7-chloro-1-oxo-4-(pyridin-3-ylmethyl)phthalazin-2(1H)-yl)-N-(2,2-difluorobenzo[d][1,3]dioxol-5-yl)-N-ethylacetamide], 30 to 80%. Same read-out and setting: as for `CCN(C(=O)c1nn(-c2ccc(C)cc2)c(=O)c2c1c1ccccc1n2C1CCC1)c1ccccc1` [Example 219, 5-cyclobutyl-N-ethyl-4-oxo-N-phenyl-3-p-tolyl-4,5-dihydro-3H-pyridazino[4,5-b]indole-1-carboxamide], the figure is 10 to 30%. As for `Cc1nc2ccc(N(C)C(=O)Cn3ncc4c(c3=O)c3ccccc3n4Cc3ccc(F)cc3)cc2o1` [Example 148, 2-(5-(4-fluorobenzyl)-1-oxo-1,5-dihydro-2H-pyridazino[4,5-b]indol-2-yl)-N-methyl-N-(2-methylbenzo[d]oxazol-6-yl)acetamide], the Emax lay within 30 to 80% and the negative logarithm of the EC50 (pEC50) is more than 5.00. Taken in the same sequence, the figures for `CCN(C(=O)c1nn(CCOC)c(=O)c2c1c1ccccc1n2C)c1ccccc1` [Example 227, N-ethyl-3-(2-methoxyethyl)-5-methyl-4-oxo-N-phenyl-4,5-dihydro-3H-pyridazino[4,5-b]indole-1-carboxamide] were 30 to 80% and more than 5.00. In the case of `Cc1nc2ccc(N(C)C(=O)Cn3ncc4c(c3=O)c3ccccc3n4Cc3ccc(C#N)cc3)cc2o1` [Example 149, 2-(5-(4-cyanobenzyl)-1-oxo-1,5-dihydro-2H-pyridazino[4,5-b]indol-2-yl)-N-methyl-N-(2-methylbenzo[d]oxazol-6-yl)acetamide], the Emax was 30 to 80% and the pEC50 was more than 5.00.

Take `Cc1nc2ccc(N(C)C(=O)Cn3nc(-c4cccc(Cl)c4)c4ccc(O)cc4c3=O)cc2o1` [Example 98, 2-(4-(3-chlorophenyl)-7-hydroxy-1-oxophthalazin-2(1H)-yl)-N-methyl-N-(2-methylbenzo[d]oxazol-6-yl)acetamide]: the pEC50 is more than 5.00.

For the compound `CCN(C(=O)c1nn(-c2ccc(C)cc2)c(=O)c2c1c1ccccc1n2Cc1ccccn1)c1ccccc1` [Example 226, N-ethyl-4-oxo-N-phenyl-5-(pyridin-2-ylmethyl)-3-(p-tolyl)-4,5-dihydro-3H-pyridazino[4,5-b]indole-1-carboxamide], the Emax was 30 to 80%. `CCN(C(=O)Cn1nc(Cc2cccnc2)c2cc(OC)c(OC)cc2c1=O)c1ccc2c(c1)OC(F)(F)O2` [Example 44, N-(2,2-difluorobenzo[d][1,3]dioxol-5-yl)-2-(6,7-dimethoxy-1-oxo-4-(pyridin-3-ylmethyl)phthalazin-2(1H)-yl)-N-ethylacetamide]: the Emax lay within 30 to 80% and the pEC50 is 4.70 to 5.00. The like results for `CCN(C(=O)Cn1ncc2c(c1=O)c1ccccc1n2Cc1cccc(OC)c1)c1ccc2c(c1)OC(F)(F)O2` [Example 135, N-(2,2-difluorobenzo[d][1,3]dioxol-5-yl)-N-ethyl-2-(5-(3-methoxybenzyl)-1-oxo-1H-pyridazino[4,5-b]indol-2(5H)-yl)acetamide] were, in that order, 30 to 80% and more than 5.00. Consider `CCc1ccc(N(CC)C(=O)Cn2nc(-c3ccc(S(N)(=O)=O)cc3)c3ccccc3c2=O)cc1` [Example 13, N-ethyl-N-(4-ethylphenyl)-2-(1-oxo-4-(4-sulfamoylphenyl)phthalazin-2(1H)-yl)acetamide], for which the Emax lay within 30 to 80% and the pEC50 was 4.70 to 5.00. As for `CCN(C(=O)Cn1ncc2c(c1=O)c1ccccc1n2Cc1cccc(C#N)c1)c1ccc2c(c1)OC(F)(F)O2` [Example 142, 2-(5-(3-cyanobenzyl)-1-oxo-1H-pyridazino[4,5-b]indol-2(5H)-yl)-N-(2,2-difluorobenzo[d][1,3]dioxol-5-yl)-N-ethylacetamide], the Emax lay within 30 to 80%. Still for that read-out and setting: to `CCN(C(=O)Cn1nc(Cc2cccnc2)c2cc(C(C)(C)C)ccc2c1=O)c1ccc2c(c1)OC(F)(F)O2` [Example 49, 2-(6-(tert-butyl)-1-oxo-4-(pyridin-3-ylmethyl)phthalazin-2(1H)-yl)-N-(2,2-difluorobenzo[d][1,3]dioxol-5-yl)-N-ethylacetamide] belongs more than 80%. For `CCN(C(=O)c1nn(-c2ccc(C)cc2)c(=O)c2c1c1cc(Cl)ccc1n2C)c1ccccc1` [Example 165, 8-chloro-N-ethyl-5-methyl-4-oxo-N-phenyl-3-(p-tolyl)-4,5-dihydro-3H-pyridazino[4,5-b]indole-1-carboxamide], the Emax is 30 to 80% and the pEC50 was more than 5.00.
